How the values were obtained:
Heterodera schachtii = Heterodera schachtii (sugar beet cyst nematode), nematicide, contact activity: juvenile paralysis in 16-well assay plates; assay type: in vivo; details: 200 ppm, approx. 500 juveniles per well, 24 hours incubation at 25° C. in darkness, read-out: nematode immobilization compared to the untreated control
Description: Heterodera schachtii (Sugar Beet Cyst Nematode), Nematicide, Contact Activity
The tested application rate of each compound was 200 ppm. All solutions were brought to a concentration of 400 ppm, respectively, as they were subsequently diluted by adding the equivalent amount of water containing juvenile nematodes. After preparation of the suspensions, 1 ml of each suspension and concentration was transferred to 16-well assay plates with a total of three replicates per treatment. Approximately 500 juveniles of Heterodera schachtii were added in 1 ml of water to each well. Nematodes in water served as controls. The plates were placed in a dark box and stored at room temperature. Nematode paralysis was determined after 24 hours incubation at 25° C. in darkness.

Meloidogyne spp. = Meloidogyne spp. (root-knot nematode), nematicide, contact activity, preventive: cucumber seed in filter paper pouch; assay type: in vivo; details: 288 h, cucumber cv. Toshka seed in pouch, 3000 eggs, twelve days, read-out: reduction of galling compared to the untreated control
Description: Meloidogyne spp. (Root-Knot Nematode) Nematicide, Contact Activity, Preventive. Filter papers (9 cm×4.5 cm) with a small pocket were placed into plastic pouches (12 cm×6 cm). One cucumber cv. Toshka seed was placed in the centre of the filter paper pocket of all the pouches needed for a test. The cucumber seeds in the pouches were treated with test solutions at 200 ppm by pipetting the solution directly over the cucumber seed in the filter paper pocket in the pouch. Prior to application, the compound solution was prepared at twice the concentration required and the egg suspension is prepared with FORL nutrient solution with 3000 eggs/0.5 ml. After applying all the treatments, 3000 eggs (in 0.5 ml of FORL nutrient solution) were pipetted into the pouches. The pouches were incubated in a moist chamber for twelve days and watered regularly to maintain good filter paper moisture essential for the growing cucumber root system. After this period, the filter paper containing the germinated cucumber seedling was removed from the plastic pouch to assess the number of galls caused by Meloidogyne spp. per root system. Phytotoxicity was measured as a reduction of growth of the emerged cucumber seedling in comparison to the control.

## O=C(N[C@H]1CC[C@H]1c1ccc(Cl)cc1Cl)c1c(F)cccc1Cl [Compound 61.66, 2-chloro-N-[(1S,2S)-2-(2,4-dichlorophenyl)cyclobutyl]-6-fluorobenzamide]
Heterodera schachtii
  pest or weed control at 200 ppm: > 75%
Meloidogyne spp.
  pest or weed control at 200 ppm: > 80%

## O=C(N[C@H]1CC[C@H]1c1ccc(Cl)cc1)c1c(F)cccc1C(F)(F)F [Compound 61.41, N-[(1S,2S)-2-(4-chlorophenyl)cyclobutyl]-2-fluoro-6-(trifluoromethyl)benzamide]
Heterodera schachtii
  pest or weed control at 200 ppm: > 75%
Meloidogyne spp.
  pest or weed control at 200 ppm: > 80%

## O=C(N[C@H]1CC[C@H]1c1ccc(Cl)cc1Cl)c1ccsc1Cl [Compound 61.95, 2-chloro-N-[(1S,2S)-2-(2,4-dichlorophenyl)cyclobutyl]thiophene-3-carboxamide]
Heterodera schachtii
  pest or weed control at 200 ppm: > 75%
Meloidogyne spp.
  pest or weed control at 200 ppm: > 80%

## Cc1ncccc1C(=O)N[C@H]1CC[C@H]1c1ccc(Cl)cc1Cl [Compound 61.7, N-[(1S,2S)-2-(2,4-dichlorophenyl)cyclobutyl]-2-methylpyridine-3-carboxamide]
Heterodera schachtii
  pest or weed control at 200 ppm: > 75%
Meloidogyne spp.
  pest or weed control at 200 ppm: > 80%

## Cc1occc1C(=O)N[C@H]1CC[C@H]1c1ccc(Cl)cc1Cl [Compound 61.64, N-[(1S,2S)-2-(2,4-dichlorophenyl)cyclobutyl]-2-methylfuran-3-carboxamide]
Heterodera schachtii
  pest or weed control at 200 ppm: > 75%
Meloidogyne spp.
  pest or weed control at 200 ppm: > 80%

## O=C(N[C@H]1CC[C@H]1c1ccc(Cl)cc1Cl)c1ncccc1Br [Compound 61.60, 3-bromo-N-[(1S,2S)-2-(2,4-dichlorophenyl)cyclobutyl]pyridine-2-carboxamide]
Heterodera schachtii
  pest or weed control at 200 ppm: > 75%
Meloidogyne spp.
  pest or weed control at 200 ppm: > 80%

## O=C(N[C@H]1CC[C@H]1c1ccc(Cl)cc1Cl)c1ccccc1Br [Compound 61.8, 2-bromo-N-[(1S,2S)-2-(2,4-dichlorophenyl)cyclobutyl]benzamide]
Heterodera schachtii
  pest or weed control at 200 ppm: > 75%
Meloidogyne spp.
  pest or weed control at 200 ppm: > 80%

## Cn1cc(C(=O)N[C@H]2CC[C@H]2c2ccc(Cl)cc2Cl)c(C(F)F)n1 [Compound 61.77, N-[(1S,2S)-2-(2,4-dichlorophenyl)cyclobutyl]-3-(difluoromethyl)-1-methylpyrazole-4-carboxamide]
Heterodera schachtii
  pest or weed control at 200 ppm: > 75%
Meloidogyne spp.
  pest or weed control at 200 ppm: > 80%

Reference: USRE50724E1, “4-membered ring carboxamides used as nematicides” (SYNGENTA CROP PROTECTION AG, priority 2013, dated 2026)
